In patent publication US20230383261A1, “HEPATOCYTE-LIKE CELLS” (Sana Biotechnology, Inc., priority 2020, published 2023):

What was measured:
Type in all cases: cell-based, human
[1] = tested on: hepatocyte and urea cycle genes in hepatocyte-like cells; test: qPCR expression of hepatocyte and urea cycle genes in iPSC-derived hepatocyte-like cells (Protocols A and B)
Method: (§1) Human iPSCs were differentiated to hepatocyte-like cells essentially as described in […] et al., Nature Prot. 8(2):430-437 (2013) (Protocol A) or Blackford et al., Stem Cells Transl Med. 8(2):124-137 (2019) (Protocol B) with the following modifications: cells were maintained in the final medium until a total culture time of 35 days and HepatoZYME basal medium was substituted in Protocol B starting at day 8. Forskolin was added to the final medium at a concentration of […] on day 21 (Protocol A) or day 28 (Protocols A and B). Expression of hepatocyte and urea cycle genes was measured by qPCR and/or fluorescent Western blot analysis. Ureagenesis of the cells was assayed using Urea Assay Kit (BioChain).

[2] = tested on: hepatocyte-like cells; test: ureagenesis after ammonia challenge (Urea Assay Kit); conditions: day 35, seven-day forskolin
Method: as §1, with “(BioChain). Ureagenesis activity was measured in day 35 cells from Protocol A and Protocol B following seven-day treatment with forskolin, following challenge of the hepatocyte-like cells with 0-16 mM ammonia. […] For Protocol A, ureagenesis activity peaked at stimulation with 5 mM ammonia treatment at about 20 nmol/min/10^6 cells, and levels were observed higher than those seen using primary human hepatocytes. For […], ureagenesis activity peaked at stimulation with 10 mM ammonia at a level similar to primary human hepatocytes, about 3 nmol/min/10^6 cells.” for “(BioChain).”

[3] = tested on: hepatocyte maturation genes and urea cycle genes in hepatocyte-like cells; test: Taqman qPCR gene expression, 3D differentiation protocol with or without forskolin; conditions: 10 μM forskolin days 28 to 35, vs untreated
Method: In the process, the pluripotent stem cells differentiate through different stages including a definitive endoderm stage, an anterior definitive endoderm stage, a foregut endoderm stage, a hepatic endoderm stage, an immature hepatocyte stage, and a mature hepatocyte stage. […] All pluripotent cell lines robustly differentiated in the endoderm lineage in the 3D format, with all cell lines achieving a target efficiency of 90% CXCR4 expressing cells. Gene expression analysis was performed on hepatocyte-like cells produced by either (i) a 3D differentiation protocol or (ii) a 3D differentiation protocol with the addition of 10 μM forskolin from days 28 to day 35. Duplicate RNA samples were isolated at selected time point of the differentiation and gene expression was analyzed by Taqman qPCR.

[4] = tested on: hepatocyte-like cells; test: urea production assay at day 35, 2D differentiation with forskolin; conditions: forskolin about 5 μM to about 10 μM after the first 26 days, read at day 35
Method: Mature hepatocyte-like cells were differentiated from human pluripotent stem cells using a 2D differentiation protocol for the first 26 days of differentiation, and then the immature hepatocyte-like cells were cultured in media containing forskolin (ranging from about 5 μM to about 10 μM). At day 35, the activity for the hepatocytes was determined using a urea production assay.

[5] = tested on: hepatocyte-specific genes and urea cycle enzyme genes; test: gene expression in differentiation methods A, B and C with forskolin; conditions: forskolin at days 21-35 or 30-35 (3D) or days 28-35 (2D)
Method: This example provides urea cycle gene expression of hepatocyte-like cells differentiated using three different methods, such as a 3D differentiation method with forskolin treatment at days 21-35 (method A), a 3D differentiation method with forskolin treatment at days 30-35 (method B), and a 2D differentiation method with forskolin treatment at days 28-35 (method C). The expression of the following genes were measured: alpha fetoprotein (AFP), albumin (ALB), arginase 1 (ARG1), asialoglycoprotein receptor 1 (ASGR1), agininosuccinate lyase (ASL), argininosuccinate synthase 1 (ASS1), carbamoyl-phosphate synthase 1 (CPS1), glucose-6-phosphatase (G6PC), hepatocyte nuclear factor 4 alpha (HNF4a), keratin type I cytoskeletal 18 (KRT18), […] (NAGS), ornithine transcarbamylase (OTC), and SOX9. Expression of cardiac-specific markers NKX2.5 and TNNT2 were used as a negative expression control.
In this study, forskolin treatment was included at days 21-35 of the 3D hepatocyte differentiation process outlined above, at days 30-35 of the 3D hepatocyte differentiation process outlined above, or days 28-35 of the 2D hepatocyte differentiation process outlined above. Gene expression of numerous hepatocyte and urea cycle markers was measured at different time points.

[6] = tested on: hPSC-Heps spheroids; conditions: for ammonia detoxification: media containing ammonia; for ammonia detoxification with excess arginine: media containing ammonia and arginine
Method: Human pluripotent stem cell-derived hepatocytes (hPSC-Heps) were obtained after 21 days of differentiation using a 2D adherent protocol. At day 21 the hPSC-Heps were aggregated into spheroids, and then encapsulated within alginate 48 hours later. The spheroids including the alginate encapsulated spheroids were cultured for 14 days in either vitamin K1, vitamin K2 MK4, […], vitamin E, or a combination of all. The spheroids were cultured at a concentration of about 1×10^6 encapsulated cells/ml for the culture period.

[7] = tested on: CYP3A4 activity in hepatocyte-like cells; test: CYP3A4 enzyme activity assay of hepatocyte maturation, media with or without HGF; conditions: absence of HGF in the culture media after the first 14 days of 2D differentiation, vs media containing HGF
Method: Mature hepatocyte-like cells were differentiated from human pluripotent stem cells using a 2D differentiation protocol for the first 14 days of differentiation, and then the cells were cultured in media lacking recombinant HGF. At day 14, hepatocytes at the hepatic endoderm stage were dissociated and seeded into these plates in fully supplemented HepatoZYME-SFM media. 24 hours later the cells were cultured and maintained in media lacking recombinant HGF. Hepatocyte maturation was determined using a CYP3A4 enzyme activity assay.

C=C[C@@]1(C)CC(=O)[C@]2(O)[C@@]3(C)[C@@H](O)CCC(C)(C)[C@@H]3[C@H](O)[C@H](OC(C)=O)[C@@]2(C)O1 [forskolin]
increase in urea cycle gene CPS1 ([1]; Protocol A, forskolin 10 mM at days 21-28, vs cells without forskolin, qPCR): 5-8 fold
expression of hepatocyte-like cell genes (HNF4a, AFP, ALB, ASGR1) ([1]; Protocol A, forskolin 10 mM in medium at days 21-28, vs cells without forskolin, qPCR): no significant effect
enhancement of hepatocyte-like cell gene (HNF4a, ALB, ASGR1) expression ([1]; Protocol B, forskolin 10 mM at days 28-35, read at day 35, vs cells without forskolin): 2-4 fold
peak ureagenesis activity ([2]; Protocol A, stimulation with 5 mM ammonia, higher than primary human hepatocytes): about 20 nmol/min/10^6 cells
peak ureagenesis activity ([2]; printed Protocol A (second mention), stimulation with 10 mM ammonia, similar to primary human hepatocytes): about 3 nmol/min/10^6 cells
expression of hepatocyte maturation genes and urea cycle genes [3]: increases in expression
ureagenesis activity of the differentiated mature hepatocyte [4]: enhanced the ureagenesis activity
expression of hepatocyte-specific and urea cycle enzyme genes including ALB, ARG1, ASGR1, ASL, CPS1, G6PC, HNF4a and/or NAGS [5]: increased expression

CC1=C(C/C=C(\C)CCC[C@H](C)CCC[C@H](C)CCCC(C)C)C(=O)c2ccccc2C1=O [vitamin K1]
functional maturation status of the hepatocytes (urea synthesis) [6]: increased the functional maturation status
ammonia detoxification [6]: more effective at detoxifying ammonia
ammonia detoxification with excess arginine [6]: detoxified ammonia even faster

CC(C)=CCC/C(C)=C/CC/C(C)=C/CC/C(C)=C/CC1=C(C)C(=O)c2ccccc2C1=O [vitamin K2 MK4]
functional maturation status of the hepatocytes (urea synthesis) [6]: increased the functional maturation status

CC(C)=CCC/C(C)=C/CC/C(C)=C/CC/C(C)=C/CC/C(C)=C/CC/C(C)=C/CC/C(C)=C/CC1=C(C)C(=O)c2ccccc2C1=O [vitamin K2 MK7]
functional maturation status of the hepatocytes (urea synthesis) [6]: increased the functional maturation status

CC(C)=CCC/C(C)=C/CC/C(C)=C/CC/C(C)=C/CC1=C(C)C(=O)c2ccccc2C1=O [vitamin K2]
ammonia detoxification [6]: more effective at detoxifying ammonia
ammonia detoxification with excess arginine [6]: detoxified ammonia even faster

HGF: recombinant hepatocyte growth factor in culture media
hepatocyte maturation (CYP3A4 enzyme activity) [7]: enhanced hepatocyte maturation
